Results reported in patent US6610744B2, “Methods of treatment with compounds having RARα receptor specific or selective activity” (Allergan, Inc., priority 1995, dated 2003).
≈ marks a conversion by molar mass, not a printed value.

Legend:
RXRα = biological target: T1, RXRα (Homo sapiens, UniProt P19793); assay: Ligand binding assay, RXRα
T1 construct: made in house; host or cells: Baculovirus expression (insect cell extract)
T1 sequence (P19793 1-462): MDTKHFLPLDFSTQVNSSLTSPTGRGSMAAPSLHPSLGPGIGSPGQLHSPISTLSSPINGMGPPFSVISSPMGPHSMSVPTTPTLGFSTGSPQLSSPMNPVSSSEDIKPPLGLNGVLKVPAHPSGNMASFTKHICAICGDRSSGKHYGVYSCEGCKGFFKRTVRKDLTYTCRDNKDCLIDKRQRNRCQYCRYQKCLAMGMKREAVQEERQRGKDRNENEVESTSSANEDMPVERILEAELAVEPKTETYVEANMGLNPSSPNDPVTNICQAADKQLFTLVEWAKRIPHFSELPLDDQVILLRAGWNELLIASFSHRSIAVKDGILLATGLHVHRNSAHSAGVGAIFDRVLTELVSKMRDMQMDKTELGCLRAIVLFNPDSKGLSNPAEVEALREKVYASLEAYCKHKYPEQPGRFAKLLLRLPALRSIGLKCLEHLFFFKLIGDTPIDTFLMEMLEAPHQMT
Method: (§1) All binding assays were performed in a similar fashion. All six receptor types were derived from the expressed receptor type (RARα, β, Γ and RXRα, β, Γ) expressed in Baculovirus. Stock solutions of all compounds were prepared as 10 mM ethanol solutions and serial dilutions carried out into 1:1 DMSO; ethanol. Assay buffers consisted of the following for all six receptor assays: 8% glycerol, 120 mM KCl 8 mM Tris, 5 mM CHAPS 4 mM DTT and 0.24 mM PMSF, pH-7.4@ room temperature.
(§2) All receptor binding assays were performed in the same manner. The final assay volume was 250 μl and contained from 10-40 μg of extract protein depending on receptor being assayed along with 5 nM of [^3H] all-trans retinoic acid or 10 nM [^3H] 9-cis retinoic acid and varying concentrations of competing ligand at concentrations that ranged from 0-10^−5 M. The assays were formatted for a 96 well minitube system. Incubations were carried out at 4° C. until equilibrium was achieved. Non-specific binding was defined as that binding remaining in the presence of 1000 nM of the appropriate unlabeled retinoic acid isomer. At the end of the incubation period, 50 μl of 6.25% hydroxyapitite was added in the appropriate wash buffer. The wash buffer consisted of 100 mM KCl, 10 mM Tris and either 5 mM CHAPS (RXRα, β, Γ) or 0.5% Triton X-100 (RARα, β, Γ). The mixture was vortexed and incubated for 10 minutes at 4° C., centrifuged and the supernatant removed. The hydroxyapitite was washed three more times with the appropriate wash buffer. The receptor-ligand complex was adsorbed by the hydroxyapitite. The amount of receptor-ligand complex was determined by liquid scintillation counting of hydroxyapitite pellet.
(§3) After correcting for non-specific binding, IC50 values were determined. […] The IC50 value was determined graphically from a loglogit plot of the data. The […] were determined by application of the Cheng-Prussof equation to the IC50 values, the labeled ligand concentration and the Kd of the labeled ligand.
(§4) The results of ligand binding assay are expressed in Kd numbers. (See Cheng et al. Biochemical Pharmacology Vol. 22 pp 3099-3108, expressly incorporated herein by reference.)

RXRβ = biological target: T2, RXRβ (Homo sapiens, UniProt P28702); assay: Ligand binding assay, RXRβ
T2 construct: made in house; host or cells: Baculovirus expression (insect cell extract)
T2 sequence (P28702 1-533): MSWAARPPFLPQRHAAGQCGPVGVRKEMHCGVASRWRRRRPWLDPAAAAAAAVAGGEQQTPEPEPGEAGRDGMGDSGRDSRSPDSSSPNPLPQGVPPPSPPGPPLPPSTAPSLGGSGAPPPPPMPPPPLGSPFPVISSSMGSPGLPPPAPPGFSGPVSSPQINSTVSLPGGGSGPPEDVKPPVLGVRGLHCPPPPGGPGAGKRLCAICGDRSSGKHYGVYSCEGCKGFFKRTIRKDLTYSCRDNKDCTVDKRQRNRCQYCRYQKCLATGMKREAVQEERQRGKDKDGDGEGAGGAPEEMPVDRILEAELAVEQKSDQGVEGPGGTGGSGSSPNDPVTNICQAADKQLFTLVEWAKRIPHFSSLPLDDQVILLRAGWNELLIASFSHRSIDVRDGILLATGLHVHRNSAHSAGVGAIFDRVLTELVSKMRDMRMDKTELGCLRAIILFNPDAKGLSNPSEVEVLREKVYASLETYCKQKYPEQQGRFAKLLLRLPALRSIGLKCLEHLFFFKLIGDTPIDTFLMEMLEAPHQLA
Method: as §1, §2, §3, §4

RXRΓ = biological target: T3, RXRΓ (Homo sapiens, UniProt P48443); assay: Ligand binding assay, RXRΓ
T3 construct: made in house; host or cells: Baculovirus expression (insect cell extract)
T3 sequence (P48443 1-463): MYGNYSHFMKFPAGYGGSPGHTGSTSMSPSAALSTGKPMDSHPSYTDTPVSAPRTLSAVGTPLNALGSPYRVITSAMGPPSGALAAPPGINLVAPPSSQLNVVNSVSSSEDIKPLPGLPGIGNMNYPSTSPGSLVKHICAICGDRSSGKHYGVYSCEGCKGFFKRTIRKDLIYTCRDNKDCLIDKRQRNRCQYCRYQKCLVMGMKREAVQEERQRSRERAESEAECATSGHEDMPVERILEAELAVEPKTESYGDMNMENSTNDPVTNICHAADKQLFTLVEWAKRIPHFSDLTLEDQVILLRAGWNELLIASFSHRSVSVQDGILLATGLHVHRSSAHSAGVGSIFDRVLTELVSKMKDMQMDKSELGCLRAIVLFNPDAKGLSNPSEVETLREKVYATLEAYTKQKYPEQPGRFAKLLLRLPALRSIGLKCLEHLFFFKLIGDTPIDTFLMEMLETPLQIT
Method: as §1, §2, §3, §4

[1] = system: AML-193 cells (acute monocytic leukemia); assay: AML 193 cell culture assay (3H-thymidine incorporation); format: cell-based, human; settings: FIG. 3; low concentrations
Method: All trans-retinoic acid (t-RA) (Sigma Chemicals Co., St. Louis, Mo.) was stored at −70° C. Prior to each experiment the compound was dissolved in 100% ethanol at 1 mM and diluted in culture medium immediately before use. All experiments were performed in subdued light. Controls were assayed using the same concentration of ethanol as present in the experimental plates and this concentration of diluent had no effect in either assay.
AML-193 was established from the blast cells classified as M5 Acute Monocyte Leukemia. The growth factor, […] (GM-CSF) was required to establish this cell line and growth factors are necessary for its continuous proliferation in chemically defined medium. AML-193 cells were grown and maintained in Iscove's modified Dulbecco's medium supplemented with 10% fetal bovine serum, glutamine and antibiotics with 5 μg/ml insulin (Sigma Chemical Co.) and 2 ng/ml rh GM-CSF (R and D Systems). The cells were diluted to a concentration of 3×10^5/ml twice a week.
AML-193 cells were plated in a 96 well round bottom microtiter plate (Costar) at a density of 1,000 cells/well. To appropriate wells, retinoid test compounds were added at the final concentrations indicated for a final volume of 150 μl/well. The plates were incubated for 96 hours at 37° C. in a humidified atmosphere of 5% CO2 in air. Subsequently, 1 μCi of [5′-^3H]-thymidine (Amersham, U.K., 43 Ci/mmol specific activity) in 25 μl culture medium was added to each well and the cells were incubated for an additional 6 hours.
The cell lines were then processed as follows: the cellular DNA was precipitated with 10% trichloroacetic acid onto glass fiber filter mats using a SKATRON multi-well cell harvester (Skatron Instruments, Sterling Va.). Radioactivity incorporated into DNA, as a direct measurement of cell growth, was measured by liquid scintillation counting. The numbers represent the mean disintegrations per minute of incorporated thymidine from triplicate wells±SEM.

[2] = system: limb bud mesenchymal cells; assay: Chondrogenesis suppression bioassay (teratogenic potency); format: cell-based; settings: read-out: IC50 (50% inhibition of chondrogenesis); mouse limb bud spot cultures, 96 hours after plating; greater IC50 signifies lesser teratogenecity
Method: High-density “spot” cultures of limb bud mesenchymal cells are used to compare the ability of various concentrations of test drugs to suppress chondrogenic differentiation as a bioassay. Forelimb buds of mouse embryos on day 12 of gestation (54±2 somites) are dissociated in a trypsin-EDTA solution, and the resultant single-cell suspension is plated as 20-μl spots (200,000 cells/spot) on plastic culture dishes. Retinoid concentrations ranging from 0.3 ng/ml to 3 μg/ml (1 nM−10 μM) are added to the culture medium (Eagle's MEM±10% fetal bovine serum, GIBCO) 24 hours after initial plating. Control cultures receive only the vehicle (ethanol, concentration≦1% by vol); Retinoic acid is used as a positive control in another set of cultures.
The cultures are terminated 96 hours after plating, at which time the medium is removed and the cells are fixed for 1 hour in 10% formalin containing 0.5% cetylpyridinium chloride. The cultures are rinsed in acetic acid and stained for 1 hour in 0.5% Alcian blue solution at pH 1.0, differentiated in 3% acetic acid, and then dehydrated in ethanol and scored for chondrogenesis under the microscope. An absence or reduction in the number of cartilage nodules in stained cultures as compared with control cultures is taken as a measure of suppression of chondrogenesis. The number of cartilage nodules stained in the whole spot, mean number of nodules, and standard deviations are calculated for four replicate cultures per treatment. […] The IC50 values are expressed in nanogram per mililiter (ng/ml) units. An IC50 value of greater concentration in this assay signifies lesser teratogenecity.

[3] = Weight loss in rats treated for 3 days; format: in vivo, rat; settings: rats, daily doses up to 90 μmol/kg/day in corn oil for 3 days; FIG. 6, FIG. 7
Method: Weight loss or gain that experimental animals experience upon administration of retinoid compounds is another test of the drug's toxicity, with significant weight loss at relatively low doses indicating a significant toxic side effect of the retinoid. In one experiment, groups of 5 rats were treated with varying doses (administered in corn oil) of a test retinoid for 3 days. The rats were euthanized 24 hours after the last dose.

[4] = system: hairless mice [Crl:SKH1-hrBR]; assay: Eight day topical skin irritation assay in hairless mice; settings: 5 days
Method: More particularly, skin irritation was measured on a semi-quantitative scale by the daily subjective evaluation of skin flaking and abrasions. A single number, the topical irritation score, summarizes the skin irritation induced in an animal during the course of an experiment. The topical irritation score is calculated as follows. The topical irritation score is the algebraic sum of a composite flaking score and a composite abrasion score. The composite scores range from 0-9 and 0-8 for flaking and abrasions, respectively, and take into account the maximum severity, the time of onset, and the average severity of the flaking and abrasions observed.
The severity of flaking is scored on a 5-point scale and the severity of abrasions is scored on a 4-point scale, with higher scores reflecting greater severity. The maximum severity component of the composite scores would be the highest daily severity score assigned to a given animal during the course of observation.
For the time of onset component of the composite score, a score ranging from 0 to 4 is assigned as follows:
The average severity component of the composite score is the sum of the daily flaking or abrasion scores divided by the number of observation days.
To calculate the composite flaking and abrasion scores, the average severity and time of onset scores are summed and divided by 2. The result is added to the maximal severity score. The composite flaking and abrasion scores are then summed to give the overall topical irritation score. Each animal receives a topical irritation score, and the values are expressed as the mean±SD of the individual scores of a group of animals. Values are rounded to the nearest integer.
Thus, female hairless mice [Crl:SKH1-hrBR] […] Treatments are applied to the dorsal skin in a total volume of 4 ml/kg (−0.1 ml).

RARβ = biological target: T4, RARβ (Homo sapiens, UniProt P10826); assay: Ligand binding assay, RARβ
T4 construct: made in house; host or cells: Baculovirus expression (insect cell extract)
T4 sequence (P10826 1-455): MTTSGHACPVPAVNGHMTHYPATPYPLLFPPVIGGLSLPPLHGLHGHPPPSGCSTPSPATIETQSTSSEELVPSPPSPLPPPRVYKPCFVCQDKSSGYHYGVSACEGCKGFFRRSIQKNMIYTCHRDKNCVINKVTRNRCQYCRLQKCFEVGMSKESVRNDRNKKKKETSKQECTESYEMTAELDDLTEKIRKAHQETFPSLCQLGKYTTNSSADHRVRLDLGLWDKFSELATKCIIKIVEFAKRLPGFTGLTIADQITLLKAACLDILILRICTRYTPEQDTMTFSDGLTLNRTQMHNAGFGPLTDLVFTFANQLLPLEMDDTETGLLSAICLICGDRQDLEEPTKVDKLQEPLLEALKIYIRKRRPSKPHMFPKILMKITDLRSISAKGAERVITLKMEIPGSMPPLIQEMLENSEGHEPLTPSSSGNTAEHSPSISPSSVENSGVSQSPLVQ
Method: as §1, §2, §3, §4

RARΓ = biological target: T5, RARΓ (Homo sapiens, UniProt P13631); assay: Ligand binding assay, RARΓ
T5 construct: made in house; host or cells: Baculovirus expression (insect cell extract)
T5 sequence (P13631 1-454): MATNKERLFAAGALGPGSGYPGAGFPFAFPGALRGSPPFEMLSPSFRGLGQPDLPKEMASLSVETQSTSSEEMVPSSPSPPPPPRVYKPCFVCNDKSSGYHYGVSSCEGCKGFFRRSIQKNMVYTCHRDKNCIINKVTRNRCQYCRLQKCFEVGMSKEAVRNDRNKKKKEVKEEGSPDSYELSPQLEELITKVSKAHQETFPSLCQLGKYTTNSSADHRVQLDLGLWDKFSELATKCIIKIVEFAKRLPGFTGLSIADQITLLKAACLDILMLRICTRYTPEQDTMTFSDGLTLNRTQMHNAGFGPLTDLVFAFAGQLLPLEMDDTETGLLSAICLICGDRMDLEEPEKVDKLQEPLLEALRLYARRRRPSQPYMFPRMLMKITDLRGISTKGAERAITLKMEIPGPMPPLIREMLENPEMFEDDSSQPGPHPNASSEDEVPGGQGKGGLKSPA
Method: as §1, §2, §3, §4

Compound: 2-Fluoro-4-[(3′,5′-di-t-butyl)phenylcarbamoyl]benzoic acid [Compound 46]
- Kd (RXRα): > 1 µM
- Kd (RXRβ): > 1 µM
- Kd (RXRΓ): > 1 µM

Compound: CC1(C)CC(C)(C)c2cc(C(=O)Nc3ccc(C(=O)O)c(F)c3)cc(I)c2O1 [Compound 18]
- AML-193 cell proliferation at low concentrations [1]: reduce cell proliferation at low concentrations
- IC50 [2]: 0.22 µg/mL (≈ 0.442 µM)
- weight loss compared to control [3]: virtually no weight loss even in the high dose of 90 μmol/kg/day
- Abrasion Score ([4]; dose 100 nanomol/25 g topical): 1
- Body Weight % gain or (loss) ([4]; dose 100 nanomol/25 g topical): 8 ± 7%
- Composite Score ([4]; dose 100 nanomol/25 g topical): 1 ± 1
- Flaking Score ([4]; dose 100 nanomol/25 g topical): 0
- Mortality (out of 4) ([4]; dose 100 nanomol/25 g topical): 0 out of 4
- Abrasion Score ([4]; dose 1000 nanomol/25 g topical): 1
- Body Weight % gain or (loss) ([4]; dose 1000 nanomol/25 g topical): 4 ± 1%
- Composite Score ([4]; dose 1000 nanomol/25 g topical): 2 ± 0
- Flaking Score ([4]; dose 1000 nanomol/25 g topical): 1
- Mortality (out of 4) ([4]; dose 1000 nanomol/25 g topical): 0 out of 4

Compound: CC(C)(C)c1cc(C(=O)Nc2cc(F)c(C(=O)O)c(F)c2)cc(C(C)(C)C)n1 [Compound 50]
- Kd (RARβ): > 1 µM
- Kd (RARΓ): > 1 µM
- Kd (RXRα): > 1 µM
- Kd (RXRβ): > 1 µM
- Kd (RXRΓ): > 1 µM

Compound: CC(C)(C)c1cc(C(=O)Nc2cc(F)c(C(=O)O)c(F)c2)cc(C(C)(C)C)c1 [Compound 52]
- Kd (RARβ): > 1 µM
- Kd (RARΓ): > 1 µM
- Kd (RXRα): > 1 µM
- Kd (RXRβ): > 1 µM
- Kd (RXRΓ): > 1 µM

Compound: CC(C)(C)c1cc(C(=O)Nc2ccc(C(=O)O)c([N+](=O)[O-])c2)cc(C(C)(C)C)n1 [Compound 54]
- Kd (RARβ): > 1 µM
- Kd (RARΓ): > 1 µM
- Kd (RXRα): > 1 µM
- Kd (RXRβ): > 1 µM
- Kd (RXRΓ): > 1 µM
